From US11352354B2, “Substituted penta-fused hexa-heterocyclic compounds, preparation method therefor, drug combination and use thereof” (Xiamen University, priority 2017, dated 2022)
Marks after values point to notes of the source that are not given here.

Key:
MDA-MB-231 cells = test: Vacuolation of MDA-MB-231 cells caused by inhibition of compounds on PIKfyve (microscopy); assay type: cell-based; conditions: MDA-MB-231 cells
Description: I. Determination of Vacuolation of MDA-MB-231 Cells Caused by Inhibition of Compounds on PIKfyve
When the activity of pikfyve kinase is inhibited, vacuoles will be produced in cytoplasm. By observing the number of vacuoles under a microscope, the ability of compounds to inhibit the activity of pikfyve kinase can be known.
1. Cell plating: cells in logarithmic growth phase were made into a single cell suspension, counted with a cell counter and diluted to a cell concentration of about 2×10^5/mL. Then, the cells were inoculated into a 12-well plate, and cultured in a 37° C., 5% CO2 incubator.
3. Vacuolation test: after 24 and 48 hours of culture, photos were taken under an […] to observe the degree of vacuolation.
(In the table, “+” represents the degree of vacuolation; more “+” indicates more obvious vacuolation; “−” represents no vacuolation)

JeKo-1 cells = test: Tumor cell growth inhibition by MTS method, JeKo-1; assay type: cell-based; conditions: 5 days of culture; for inhibition at 10 µM: read-out: cell growth inhibition rate of compounds at 10 μM
Experimental: III. Determination of IC50 Value of Compound for Inhibiting Tumor Cell Growth by MTS Method
1. Cell plating: cells in logarithmic growth phase were counted and inoculated in a 96-well plate (20000 cells per well).
2. Administrating agent to cell: 10 mM compound mother solution in DMSO was subjected to 3 fold-gradient dilution, to set 8 concentrations, which were then added to various wells, with three replicates for each concentration, and three blank wells (only culture medium) and three negative controls (containing 0.1% DMSO) on each plate.
3. […] The OD value at 490 nm was measured with microplate reader OD490. The cell growth inhibition rate was calculated by the following formula: Cell growth inhibition rate %=1−(ODexperimental group−ODblank group)/(ODnegative group−ODblank group)×100%
The semi-inhibitory concentration IC50 of the compound acting on cell growth was calculated using GradPad Prism 5 software according to the measured cell growth inhibition rate.
In the following table it lists the IC50 value or the inhibition rates of some compounds at 10 μM against JeKo-1 cells

[1] = Homo sapiens, JeKo-1, 120 h, 10 μM

Row | IC50 (JeKo-1 cells; Homo sapiens, JeKo-1, 120 h) [nM] | IC50 (JeKo-1 cells) [nM] | SMILES | degree of vacuolation, 1 μM, 24 h (MDA-MB-231 cells) | degree of vacuolation, 1 μM, 48 h (MDA-MB-231 cells) | degree of vacuolation, 10 μM, 24 h (MDA-MB-231 cells) | degree of vacuolation, 10 μM, 48 h (MDA-MB-231 cells) | inhibition at 10 µM (JeKo-1 cells; [1]) [%] | cell growth inhibition rate of compounds at 10 μM (JeKo-1 cells; 10 μM) [%^a]
1 | 2130 |  | Cc1ccc(C(=O)Nc2ccc(CN3CCN(C)CC3)c(C(F)(F)F)c2)cc1Nc1cc(-c2ccncc2)nc2[nH]ccc12 [I-a-25] | + | + | + | + |  | 
2 | 2770 |  | Cc1ccc(NC(=O)c2cccc(C(F)(F)F)c2)cc1Nc1cc(-c2cccnc2)nc2c1ccn2C [I-b-1] | ++ | ++ | +++ | +++ |  | 
3 | 1600 |  | Cc1ccc(NC(=O)c2cccc(C(F)(F)F)c2)cc1Nc1cc(-c2ccncc2)nc2c1ccn2C [I-b-2] | − | − | ++ | ++ |  | 
4 |  | 2680 | Cc1ccc(C(=O)Nc2cccc(C(F)(F)F)c2)cc1Nc1cc(-c2cccnc2)nc2c1ccn2C [I-b-3] | + | + | ++ | ++ |  | 
5 |  | 1330 | Cc1ccc(C(=O)Nc2cccc(C(F)(F)F)c2)cc1Nc1cc(-c2cccnc2)nc2c1ccn2C [I-b-4] | − | − |  |  |  | 
6 | 6130 |  | Cc1ccc(NC(=O)c2cccc(C(F)(F)F)c2)cc1Nc1cc(-c2ccncc2)c2cc[nH]c2n1 [I-c-11] | ++ | ++ | ++ | ++ |  | 
7 | 1100 |  | Cc1ccc(NC(=O)c2cccc(C(F)(F)F)c2)cc1Nc1cc(-c2cccnc2)c2cc[nH]c2n1 [I-c-12] | +++ | +++ | +++ | +++ |  | 
8 | 2850 |  | Cc1ccc(C(=O)Nc2cccc(C(F)(F)F)c2)cc1Nc1nc(-c2cccnc2)nc2c1ccn2C [II-b-2] | + | + | + | + |  | 
9 | 939 |  | Cc1ccc(C(=O)Nc2cccc(C(F)(F)F)c2)cc1Nc1nc(-c2cccnc2)nc2c1cnn2C [III-b-1] | + | ++ | + | ++ |  | 
10 | 4860 |  | Cc1ccc(C(=O)Nc2cccc(C(F)(F)F)c2)cc1Nc1nc(-c2cccc(Cl)c2)nc2c1cnn2C [III-b-3] | − |  | − |  |  | 
11 | 1880 |  | Cc1ccc(NC(=O)c2cccc(C(F)(F)F)c2)cc1Nc1nc(-c2cccnc2)nc2c1cnn2C [III-b-10] | − | + | − | + |  | 
12 | 6780 |  | Cn1ncc2c(NCc3cccnc3)nc(-c3cccc(NC(=O)Nc4cccc(C(F)(F)F)c4)c3)nc21 [III-b-14] | + | + | + | + |  | 
13 | 2000 |  | Cc1ccc(C(=O)Nc2cccc(C(F)(F)F)c2)cc1Nc1nc(-c2cccnc2)c2cnn(C)c2n1 [III-c-1] |  |  |  |  |  | 
14 | 7120 |  | Cc1ccc(C(=O)Nc2cccc(C(F)(F)F)c2)cc1Nc1nc(-c2cccnc2)nc2c1ncn2C [IV-b-2] | + | + | + | + |  | 
15 | 3080 |  | Cc1ccc(C(=O)Nc2cccc(C(F)(F)F)c2)cc1Nc1nc(-c2cccnc2)nc2cc[nH]c12 [V-a-5] | +++ | +++ | ++ | ++ |  | 
16 | 987 |  | Cc1ccc(C(=O)Nc2cccc(C(F)(F)F)c2)cc1Nc1nc(-c2ccncc2)nc2cc[nH]c12 [V-a-6] | ++ | ++ | ++ | ++ |  | 
17 | 7490 |  | Cc1ccc(NC(=O)c2cccc(C(F)(F)F)c2)cc1Nc1nc(-c2cccnc2)cn2ccnc12 [VI-a-1] |  |  |  |  |  | 

Continued, molecule first:

Row | SMILES | IC50 (JeKo-1 cells; Homo sapiens, JeKo-1, 120 h) [nM] | IC50 (JeKo-1 cells) [nM] | degree of vacuolation, 1 μM, 24 h (MDA-MB-231 cells) | degree of vacuolation, 1 μM, 48 h (MDA-MB-231 cells) | degree of vacuolation, 10 μM, 24 h (MDA-MB-231 cells) | degree of vacuolation, 10 μM, 48 h (MDA-MB-231 cells) | inhibition at 10 µM (JeKo-1 cells; [1]) [%] | cell growth inhibition rate of compounds at 10 μM (JeKo-1 cells; 10 μM) [%^a]
18 | Cc1ccc(C(=O)Nc2cccc(C(F)(F)F)c2)cc1Nc1cc(-c2cccnc2)nc2[nH]ccc12 [I-a-20] | 2540 |  | +++ | +++ | ++++ | ++++ |  | 
19 | Cc1ccc(NC(=O)c2cccc(C(F)(F)F)c2)cc1Nc1nc(-c2cccnc2)nc2[nH]ccc12 [II-a-1] |  |  |  | + |  | + | 17.3 | 
20 | Cc1ccc(C(=O)Nc2cccc(C(F)(F)F)c2)cc1Nc1nc(-c2cccnc2)nc2[nH]ccc12 [II-a-2] |  |  | + | + | + | + | 43.4 | 
21 | Cc1ccc(C(=O)Nc2cccc(C(F)(F)F)c2)cc1Nc1nc(-c2ccncc2)nc2[nH]ccc12 [II-a-4] |  |  | − | − | + | + | 18.7 | 
22 | Cn1ncc2c(NCc3cccnc3)nc(-c3cccc(NC(=S)Nc4cccc(C(F)(F)F)c4)c3)nc21 [III-b-15] |  |  | − | − | + | + | 24.1 | 
23 | Cc1ccc(NC(=O)c2cccc(C(F)(F)F)c2)cc1Nc1nc(-c2cccnc2)nc2[nH]cnc12 [IV-a-1] |  |  | + | ++ | + | ++ | 18.3 | 
24 | Cc1ccc(C(=O)Nc2cccc(C(F)(F)F)c2)cc1Nc1nc(-c2ccncc2)nc2[nH]cnc12 [IV-a-2] |  |  | + | ++ | + | ++ | 19 | 
25 | Cc1ccc(C(=O)Nc2cccc(C(F)(F)F)c2)cc1Nc1nc(-c2cccnc2)nc2[nH]cnc12 [IV-a-3] |  |  |  | + |  | + | 16.2 | 
26 | Cc1ccc(NC(=O)c2cccc(C(F)(F)F)c2)cc1Nc1nc(-c2cccnc2)nc2c1ncn2C [IV-b-7] |  |  | + | + | + | + | 19.1 | 
27 | Cc1ccc(NC(=O)c2cccc(C(F)(F)F)c2)cc1Nc1nc(-c2cccnc2)nc2ccn(C)c12 [V-b-1] |  |  | ++ | ++ | ++ | ++ | 12.3 | 
28 | Cc1ccc(C(=O)Nc2cccc(C(F)(F)F)c2)cc1Nc1nc(-c2ccncc2)nc2ccn(C)c12 [V-b-4] |  |  | ++ | ++ | ++ | ++ | 17.2 | 
29 | Cc1ccc(C(=O)Nc2cccc(C(F)(F)F)c2)cc1Nc1nc(-c2cccnc2)cn2ccnc12 [VI-a-2] |  |  | + | + | + | + |  | 38.6
30 | Cc1ccc(NC(=O)c2cccc(C(F)(F)F)c2)cc1Nc1nc(-c2cccnc2)cn2c(Br)cnc12 [VI-b-1] |  |  |  |  |  |  | 17.5 | 
31 | Cc1ccc(C(=O)Nc2cccc(C(F)(F)F)c2)cc1Nc1nc(-c2cccnc2)cn2c(Br)cnc12 [VI-b-2] |  |  |  |  |  |  | 14.7 | 
32 | Cc1ccc(C(=O)Nc2cccc(OC(F)(F)F)c2)cc1Nc1nc(-c2cccnc2)cn2c(Br)cnc12 [VI-b-4] |  |  | − | − | + | + |  | 
33 | Cc1ccc(C(=O)Nc2cccc(F)c2)cc1Nc1nc(-c2cccnc2)cn2c(Br)cnc12 [VI-b-5] |  |  |  |  |  |  | 16.9 | 
34 | Cc1ccc(NC(=O)c2ccc(CN3CCOCC3)c(C(F)(F)F)c2)cc1Nc1nc(-c2cccnc2)cn2c(Br)cnc12 [VI-b-6] |  |  | − | − | − | − |  | 
